{"source": "patent US20040057943A1", "about": "“Probiotic strains, a process for the selection of them, compositions thereof, and their use” (priority 2002, published 2004)", "system": "Salmonella typhmurium and Escherichia coli", "experiment": "Production of antimicrobial metabolites, agar well diffusion assay", "format": "cell-based", "conditions": "pH 4.5; data not shown", "protocol": "The probiotic strains of this invention were assessed for their capability to produce antimicrobial metabolites using an agar well diffusion assay. MRS agar plates containing 10^6 cfu/ml of different pathogenic bacteria strain (Salmonella typhmurium and Escherichia coli) were prepared. Wells, with a diameter of 5 mm, where then cut in the agar using a sterile cork-borer. Then, 50 μl of a 2 fold concentrate supernatant of each probiotic strain culture were added to the wells and allowed to diffuse into the agar during a 2 hours preincubation period at 4° C., followed by aerobic incubation of the plates at 37° C. for 16-18 hours. The antimicrobial activity of each supernatant was considered high if the diameter of the inhibition hallo for both pathogenic bacteria strains was >12, moderate between 8 and 12, and slight <8 (FIG. 11)\nMoreover, it was also tested if the antimicrobial activity of the supernatants was due to a antimicrobial substance or to the production of metabolic acids. […] It was also tested the antimicrobial capabilities of supernatants obtained from bacterial cultures using glucose or lactose as a carbohydrate source."}
{"smiles": "CC(=O)O", "note": "[acetic]", "values": [{"measurement": "Inhibitory effect of a dilution of metabolic acid on growth of Salmonella or E. coli", "value": "None of these situations inhibited the growth"}]}
{"smiles": "CCCC(=O)O", "note": "[butyric, butyric acid]", "values": [{"measurement": "Inhibitory effect of a dilution of metabolic acid on growth of Salmonella or E. coli", "value": "None of these situations inhibited the growth"}]}
